From patent publication US9868720B2 (Genentech, Inc., priority 2013, dated 2018) come the findings set out here.

As a reminder, the Ki is the dissociation constant of the complex between target and ligand, obtained from inhibition or displacement.

The target of the assay is DLK kinase (N-terminally GST-tagged DLK, catalytic domain amino acid 1-520) (Homo sapiens (Human), UniProt Q12852). The assay is described as follows: DLK TR-FRET assay. The conditions noted are these: 30 μM ATP, MKK4 K131M substrate, read-out: DLK HTRF (Ki). Type of assay: biochemical. As for the experimental part: DLK TR-FRET assay: DLK kinase reactions (20 μL) containing 5 nM N-terminally GST-tagged DLK (catalytic domain amino acid 1-520) (Carna Bioscience), 40 nM N-terminally HIS-tagged MKK4 K131M substrate, and 30 μM ATP in kinase reaction buffer (50 mM HEPES, pH 7.5, 0.01% Triton X-100, 0.01% Bovine γ-Globulins, 2 mM DTT, 10 mM MgCl2 and 1 mM EGTA), and testing compound 1:3 serial diluted starting at 20 uM were incubated at ambient temperature for 60 minutes in 384 well OptiPlate (Perkin Elmer). To quench kinase reactions and detect phosphorylated MKK4, 15 μL of TR-FRET antibody mixture containing 2 nM anti-phosphorylated MKK4 labeled with Europium cryptate (Cisbio) and 23 nM anti-HIS labeled with D2 (Cisbio) in detection buffer (25 mM Tris pH 7.5, 100 mM NaCl, 100 mM EDTA, 0.01% Tween-20, and 200 mM KF) was added to the reaction mixture. The detection mixture was incubated for 3 hours at ambient temperature and the TR-FRET was detected with an EnVision multilabel plate reader (Perkin-Elmer) using the LANCE/DELFIA Dual Enh label from Perkin-Elmer (excitation filter: UV2 (TRF) 320 and emission filters: APC 665 and Europium 615).

Molecules are shown by their SMILES.

Chain of DLK kinase (N-terminally GST-tagged DLK, catalytic domain amino acid 1-520) (Q12852 1-520): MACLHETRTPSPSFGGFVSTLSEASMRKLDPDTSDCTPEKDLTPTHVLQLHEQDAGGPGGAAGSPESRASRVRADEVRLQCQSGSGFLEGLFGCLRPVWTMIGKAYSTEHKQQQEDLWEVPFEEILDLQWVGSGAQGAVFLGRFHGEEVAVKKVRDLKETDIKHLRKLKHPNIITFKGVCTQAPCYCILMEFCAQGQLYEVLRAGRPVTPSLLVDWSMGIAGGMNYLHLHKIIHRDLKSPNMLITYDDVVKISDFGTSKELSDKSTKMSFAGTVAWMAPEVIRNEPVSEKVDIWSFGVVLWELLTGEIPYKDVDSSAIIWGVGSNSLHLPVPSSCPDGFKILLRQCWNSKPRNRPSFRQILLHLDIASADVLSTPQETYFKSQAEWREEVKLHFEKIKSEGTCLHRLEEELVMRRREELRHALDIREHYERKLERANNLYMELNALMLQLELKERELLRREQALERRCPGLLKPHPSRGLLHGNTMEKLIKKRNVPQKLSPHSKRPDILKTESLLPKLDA

In the case of `C[C@@H]1CCCN1c1nc(Nc2cc(C(F)(F)F)ccn2)cc(C2(C#N)CCOCC2)n1` [Example 209, 4-[2-((R)-2-Methyl-pyrrolidin-1-yl)-6-(4-trifluoromethyl-pyridin-2-ylamino)-pyrimidin-4-yl]-tetrahydro-pyran-4-carbonitrile], the Ki was found to be 76.8 nM.

On to `FC(F)(F)c1ccnc(Nc2cc(C3CCOCC3)nc(N3CC4(COC4)C3)n2)c1` [Example 218, [2-(2-Oxa-6-aza-spiro-[3.3]hept-6-yl)-6-(tetrahydro-pyran-4-yl)-pyrimidin-4-yl]-(4-trifluoromethyl-pyridin-2-yl)-amine], for which the Ki was determined as 288 nM.

`CC(=O)N1CCC(c2cc(Nc3cc(C(F)(F)F)ccn3)nc(N3CC(F)C(F)C3)n2)CC1` (stereo not shown) [Example 250, 1-{4-[2-(3,4-Difluoro-pyrrolidin-1-yl)-6-(4-trifluoromethyl-pyridin-2-ylamino)-pyrimidin-4-yl]-piperidin-1-yl}-ethanone]: the Ki stood at 26.7 nM.

Take `FC(F)(F)c1ccnc(Nc2cc(C3CCOCC3)nc(N3C4CCC3COC4)n2)c1` [Example 251, [2-(3-Oxa-8-aza-bicyclo-[3.2.1]oct-8-yl)-6-(tetrahydro-pyran-4-yl)-pyrimidin-4-yl]-(4-trifluoro-methyl-pyridin-2-yl)-amine]: the Ki came out at 183 nM.

Take `FC(F)(F)c1ccnc(Nc2cc(C3CCOCC3)nc(N3CCc4nc[nH]c4C3)n2)c1` [Example 252, [2-(3,4,6,7-Tetrahydro-imidazo[4,5-c]pyridin-5-yl)-6-(tetrahydro-pyran-4-yl)-pyrimidin-4-yl]-(4-trifluoromethyl-pyridin-2-yl)-amine]: the Ki was 43.5 nM.

As to `FC(F)(F)c1ccnc(Nc2cc(C3CCOCC3)nc(N3CCn4ccnc4C3)n2)c1` [Example 253, [2-(5,6-Dihydro-8H-imidazo[1,2-a]pyrazin-7-yl)-6-(tetrahydro-pyran-4-yl)-pyrimidin-4-yl]-(4-trifluoromethyl-pyridin-2-yl)-amine], the Ki was 87.7 nM.

Turning to `O=C(C1CN(c2nc(Nc3cc(C(F)(F)F)ccn3)cc(C3CCOCC3)n2)C1)N1CCOCC1` [Example 260, Morpholin-4-yl-{1-[4-(tetrahydro-pyran-4-yl)-6-(4-trifluoromethyl-pyridin-2-ylamino)-pyrimidin-2-yl]-azetidin-3-yl}-methanone], the Ki came out at 347 nM.

As for `O=C(C1CCCO1)N1CCC(c2cc(Nc3cc(C(F)(F)F)ccn3)nc(N3CC(F)(F)C3)n2)C1` (stereo not shown) [Example 265, {3-[2-(3,3-Difluoro-azetidin-1-yl)-6-(4-trifluoro-methyl-pyridin-2-ylamino)-pyrimidin-4-yl]-pyrrolidin-1-yl}-(tetrahydro-furan-2-yl)-methanone], the Ki is 159 nM.

Regarding `CN1CCC(c2cc(Nc3cc(C(F)(F)F)ccn3)nc(N3CC4CC3CO4)n2)C1` (stereo not shown) [Example 274, [6-(1-Methyl-pyrrolidin-3-yl)-2-(2-oxa-5-aza-bicyclo[2.2.1]hept-5-yl)-pyrimidin-4-yl]-(4-trifluoromethyl-pyridin-2-yl)-amine], the Ki was 46.3 nM.

Take `O=C(C(F)F)N1CCC(c2cc(Nc3cc(C(F)(F)F)ccn3)nc(N3CC4CCC(C3)O4)n2)CC1` [Example 294, 2,2-Difluoro-1{-[2(8-oxa-3-aza-bicyclo[3.2.1]oct-3-yl)-6-(4-trifluoro-methyl-pyridin-2-ylamino)-pyrimidin-4-yl]-piperidin-1-yl}-ethanone]: the Ki stood at 104 nM.

`FC(F)(F)c1ccnc(Nc2cc(C3CCOCC3)nc(N3CCCOCC3)n2)c1` [Example 295, [2-[1,4]Oxazepan-4-yl-6-(tetrahydro-pyran-4-yl)-pyrimidin-4-yl]-(4-trifluoromethyl-pyridin-2-yl)-amine]: the Ki turned out to be 82.7 nM.

For `FC(F)(F)c1ccnc(Nc2cc(C3CCOCC3)nc(N3CC4CCC(C3)O4)n2)c1` [Example 296, [2-(8-Oxa-3-aza-bicyclo-[3.2.1]oct-3-yl)-6-(tetra-hydro-pyran-4-yl)-pyrimidin-4-yl]-(4-trifluoro-methyl-pyridin-2-yl)-amine], the Ki is 174 nM.

`FC1(F)CN(c2nc(Nc3cc(C(F)(F)F)ccn3)cc(C3CCN(CC4CCOCC4)C3)n2)C1` (stereo not shown) [Example 307, {2-(3,3-Difluoro-azetidin-1-yl)-6-[1-(tetrahydro-pyran-4-ylmethyl)-pyrrolidin-3-yl]-pyrimidin-4-yl}-(4-trifluoromethyl-pyridin-2-yl)-amine]: the inhibitory constant (Ki) worked out at 31.9 nM.

Take `CN1CCC(c2cc(Nc3cc(C(F)(F)F)ccn3)nc(N3CC(C#N)C3)n2)C1` (stereo not shown) [Example 328, 1-[4-(1-Methyl-pyrrolidin-3-yl)-6-(4-trifluoromethyl-pyridin-2-ylamino)-pyrimidin-2-yl]-azetidine-3-carbonitrile]: the Ki came to 147 nM.

For the molecule `CN1CCCC(c2cc(Nc3cc(C(F)(F)F)ccn3)nc(N3CC4CCC(C3)O4)n2)C1` (stereo not shown) [Example 329, [6-(1-Methyl-piperidin-3-yl)-2-(8-oxa-3-aza-bicyclo[3.2.1]oct-3-yl)-pyrimidin-4-yl]-(4-trifluoro-methyl-pyridin-2-yl)-amine], the Ki was found to be 70.1 nM.

In the case of `C[C@@H]1CCCN1c1nc(Nc2cc(C(F)(F)F)ccn2)cc(C2CCN(S(C)(=O)=O)CC2)n1` [Example 330, [6-(1-Methanesulfonyl-piperidin-4-yl)-2-((R)-2-methyl-pyrrolidin-1-yl)-pyrimidin-4-yl]-(4-trifluoromethyl-pyridin-2-yl)-amine], the Ki came out at 31.8 nM.

Consider `C[C@@H]1CCCN1c1nc(Nc2cc(C(F)(F)F)ccn2)cc(-c2ccc(=O)n(C)c2)n1` [Example 331, 1-Methyl-5-[2-((R)-2-methyl-pyrrolidin-1-yl)-6-(4-trifluoromethyl-pyridin-2-ylamino)-pyrimidin-4-yl]-1H-pyridin-2-one], for which the Ki was 18.4 nM.

Regarding `CC1CCCN1c1nc(Nc2cc(C(F)(F)F)ccn2)cc(C2CCN(C)C(=O)C2)n1` (stereo not shown) [Example 332, 1-Methyl-4-[2-(2-methyl-pyrrolidin-1-yl)-6-(4-trifluoromethyl-pyridin-2-ylamino)-pyrimidin-4-yl]-piperidin-2-one], the Ki was 6.12 nM.

For the molecule `CCC1CN(c2nc(Nc3cc(C(F)(F)F)ccn3)cc(C3CCN(C)C3)n2)CCO1` (stereo not shown) [Example 348, [2-(2-Ethyl-morpholin-4-yl)-6-(1-methyl-pyrrolidin-3-yl)-pyrimidin-4-yl]-(4-trifluoromethyl-pyridin-2-yl)-amine], the Ki was 22.6 nM.

In the case of `CC(C)Oc1nc(Nc2cc(C(F)(F)F)ccn2)cc(C2CCOCC2)n1` [Example 350, [2-Isopropoxy-6-(tetrahydro-pyran-4-yl)-pyrimidin-4-yl]-(4-trifluoromethyl-pyridin-2-yl)-amine], the Ki came out at 47.5 nM.

With `CC(=O)N1CC(c2cc(Nc3cc(C(F)(F)F)ccn3)nc(C3CC3)n2)C1` [Example 356, 1-{3-[2-Cyclopropyl-6-(4-trifluoromethyl-pyridin-2-ylamino)-pyrimidin-4-yl]-azetidin-1-yl}-ethanone], the Ki was found to be 101 nM.

Take `CN1CCCC(c2cc(Nc3cc(C(F)(F)F)ccn3)nc(N3CC(N4CCOCC4)C3)n2)C1` (stereo not shown) [Example 371, [6-(1-Methyl-piperidin-3-yl)-2-(3-morpholin-4-yl-azetidin-1-yl)-pyrimidin-4-yl]-(4-trifluoromethyl-pyridin-2-yl)-amine]: the Ki turned out to be 636 nM.

As to `O=C(C(F)F)N1CCC(c2cc(Nc3cc(C(F)(F)F)ccn3)nc(N3CC4CCC(C3)O4)n2)C1` (stereo not shown) [Example 373, 2,2-Difluoro-1-{3-[2-(8-oxa-3-aza-bicyclo[3.2. 1]oct-3-yl)-6-(4-trifluoro-methyl-pyridin-2-ylamino)-pyrimidin-4-yl]-pyrrolidin-1-yl}-ethanone], the Ki stood at 173 nM.

Consider `C[C@@H]1CCCN1c1nc(Nc2cc(C(F)(F)F)ccn2)cc(C2CN(S(C)(=O)=O)C2)n1` [Example 374, [6-(1-Methanesulfonyl-azetidin-3-yl)-2-((R)-2-methyl-pyrrolidin-1-yl)-pyrimidin-4-yl]-(4-trifluoromethyl-pyridin-2-yl)-amine], for which the Ki was 30.6 nM.

`CC(=O)N1CC(c2cc(Nc3cc(C(F)(F)F)ccn3)nc(N3CCC[C@H]3C)n2)C1` [Example 375, 1-{3-[2-((R)-2-Methyl-pyrrolidin-1-yl)-6-(4-trifluoromethyl-pyridin-2-ylamino)-pyrimidin-4-yl]-azetidin-1-yl}-ethanone]: the Ki was found to be 11.1 nM.

In the case of `CC1CCCN1c1nc(Nc2cc(C(F)(F)F)ccn2)cc(C2CCN(C(=O)c3cn(C)cn3)C2)n1` (stereo not shown) [Example 376, (1-Methyl-1H-imidazol-4-yl)-{3-[2-(2-methyl-pyrrolidin-1-yl)-6-(4-trifluoromethyl-pyridin-2-ylamino)-pyrimidin-4-yl]-pyrrolidin-1-yl}-methanone], the Ki was 1.72 nM.

For `CS(=O)(=O)N1CCCC(c2cc(Nc3cc(C(F)(F)F)ccn3)nc(C3CCCC3)n2)C1` (stereo not shown) [Example 385, [2-Cyclopentyl-6-(1-methanesulfonyl-piperidin-3-yl)-pyrimidin-4-yl]-(4-trifluoromethyl-pyridin-2-yl)-amine], the Ki was 36.8 nM.

Turning to `Cn1nccc1-c1nc(Nc2cc(C(F)(F)F)ccn2)cc(C2CCN(CC3CCOCC3)C2)n1` (stereo not shown) [Example 388, {2-(2-Methyl-2H-pyrazol-3-yl)-6-[1-(tetrahydro-pyran-4-ylmethyl)-pyrrolidin-3-yl]-pyrimidin-4-yl]-(4-trifluoromethyl-pyridin-2-yl)-amine], the Ki is 8.75 nM.
